# According to patent US5120713A, “Treatment of obesity with an alpha-2-adrenergic agonist and a growth hormone releasing peptide” (Applied Research Systems ARS Holding N.V., priority 1990, dated 1992):
# No end group written: not given here.
# Experiments:
# [1] = tested on: plasma GH; test: Plasma GH response (RIA) in prepubertal obese children after clonidine, galanin and/or GHRH; format: in vivo, human (obese children); details: for Mean Peak GH Response: Obese patient group, Clo 150 micrograms/m^2 oral at time 0, GHRH 1 microgram/kg i.v. bolus at 60 min, Gal 50 pmol/kg/min infusion 55-120 min
# Experimental: Eight prepubertal obese children (boys), aged 10 to 12.4 years, all in good general health and taking no medication, participated in the study with informed consent (parent and child). All had height within normal percentiles for chronological age. Bone age was advanced 6-24 months in all but one patient and weight was above the […] for chronological age in all cases. The children were tested six times at random intervals ranging from 7 to 10 days, each patient serving as their own control. Studies commenced at 0900 h after an overnight fast and bed rest and thirty minutes after the insertion of a nontrombogenic catheter for blood withdrawal in a forearm vein. The study consisted of administering clonidine (Catapresan, Boehringer Ingelheim, Spain) orally at 150 micrograms/m^2 at time 0 followed by administering GHRH (GRF 1-29, Serono, Spain) as an intravenous bolus at 1 microgram/kg at time 60 minutes. The control experiments consisted of administering on separate occasions either clonidine at time 0 or GHRH at time 60 minutes. Blood samples for GH assays (RIA, BioMerieux, France) were taken at 15 minute intervals for two hours. The mean intra-assay coefficient of variation was 5.9, 4.6 and 3.9% at mean GH concentrations of 1.5, 8 and 24 micrograms/L respectively. To avoid inter-assay variations, all samples from a subject were run in the same assay.
# (§1) Galanin (Gal) was administered alone, with clonidine (Clo) and with GHRH by infusion as a saline solution at 50 pmol/kg/min through a Millex-GY (0.22 um, Millipore) filter at time 55 to 120 minutes in all experiments. Also, for comparison purposes a similar group of short stature children diagnosed as having constitutional growth delay (CGD) were administered GHRH, galanin plus GHRH, and clonidine plus GHRH (previous study) by the same procedure.
# [2] = tested on: GH; details: normal children and adolescents; reported (ref 9); cited from earlier work
# [3] = tested on: plasma GH; test: Plasma GH response in short children with constitutional growth delay (CGD); format: in vivo, human (short stature children
# Experimental: as §1
Compound,Mean Peak GH Response [1],mean peak (maximal) plasma GH level ([1]; obese children),plasma GH response (in words) ([1]; obese children),"maximal GH value in one patient ([1]; obese children, single responding patient, at time 105 min)",GHRH-induced GH response [2],time of GH peak after administering GHRH ([1]; obese children),"Mean Peak GH Response ([3]; CGD patient group, same procedure)",mean GH peak ([3]; control group of short children with constitutional growth delay)
"Clc1cccc(Cl)c1NC1=NCCN1 [Clo, 2-(2,6-dichloroanilino)-2-imidazoline]",2.9 ± 0.8 µg/L,2.9 ± 0.8 µg/L,did not produce any significant plasma GH increase,6.5 µg/L,–,–,–,–
"GHRH: growth hormone releasing hormone, GRF 1-29 (Serono, Spain) (YADAIFTNSYRKVLGQLSARKLLQDIMSR; ends and bridges not checked; UniProt P01286 32-60, looked up, fragment)",9.6 ± 2 µg/L,9.6 ± 2 µg/L,slight but significant increase in plasma GH,–,25.8 ± 5.6 µg/L,45 min,17.1 ± 4.3 µg/L,17.1 ± 4.3 µg/L
